The results in this text go back to patent US7981903B2, “2-[2-{phenylamino}-1H-pyrrolo[2,3-D]pyrimidin-4-yl)amino] benzamide derivatives as IGF-1R inhibitors for the treatment of cancer” (GlaxoSmithKline LLC, priority 2007, dated 2011).

Experiment [1] has as its target T1, NIH-3T3 cells overexpressing human IGF-1R (Homo sapiens, UniProt P08069).
T1 construct: expressed in transfected cells; host or cells: NIH-3T3 (mouse fibroblasts)
Description: IGF-1R cellular autophosphorylation (DELFIA). Type of experiment: cell-based. An outline of the steps:
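Receptor autophosphorylation measured by DELFIA, capturing IGF-1R or IRβ and detecting with europium anti-pTyr, reported as percent of IGF-1- or insulin-stimulated signal. Compounds (30 uM to 1.5 nM) added 2 h before ligand, then 15 min stimulation (IGF-1 30 ng/ml or insulin 3 ug/ml).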

In another experiment the target is T2, human IGF1R (hIGF1R) (Homo sapiens, UniProt P08069).
T2 construct: containing amino acid residues 957-1367 of human IGF1R; made in house; host or cells: Sf9 cells (baculovirus)
T2 sequence (P08069 957-1367): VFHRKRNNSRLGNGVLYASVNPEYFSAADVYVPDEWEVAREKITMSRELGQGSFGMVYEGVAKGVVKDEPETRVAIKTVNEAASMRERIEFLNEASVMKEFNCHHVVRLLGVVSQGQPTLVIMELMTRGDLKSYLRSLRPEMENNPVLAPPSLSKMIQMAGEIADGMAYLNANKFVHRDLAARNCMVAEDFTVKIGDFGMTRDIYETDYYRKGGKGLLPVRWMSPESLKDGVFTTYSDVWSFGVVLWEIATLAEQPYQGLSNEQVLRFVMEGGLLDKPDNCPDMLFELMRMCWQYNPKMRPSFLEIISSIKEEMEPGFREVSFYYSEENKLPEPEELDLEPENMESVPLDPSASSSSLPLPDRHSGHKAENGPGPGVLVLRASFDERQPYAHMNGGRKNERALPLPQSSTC
Description: TR-FRET kinase assay of purified hIGF1R. Type of experiment: biochemical. As to conditions: activated hIGF1R 0.5 nM, 10 μM ATP, values given as pIC50 category, read-out: IGF-1R pIC50 (converted). A general note: TR-FRET usually uses a lanthanide donor and a delayed reading to cut background.

T1 sequence (P08069 31-1367): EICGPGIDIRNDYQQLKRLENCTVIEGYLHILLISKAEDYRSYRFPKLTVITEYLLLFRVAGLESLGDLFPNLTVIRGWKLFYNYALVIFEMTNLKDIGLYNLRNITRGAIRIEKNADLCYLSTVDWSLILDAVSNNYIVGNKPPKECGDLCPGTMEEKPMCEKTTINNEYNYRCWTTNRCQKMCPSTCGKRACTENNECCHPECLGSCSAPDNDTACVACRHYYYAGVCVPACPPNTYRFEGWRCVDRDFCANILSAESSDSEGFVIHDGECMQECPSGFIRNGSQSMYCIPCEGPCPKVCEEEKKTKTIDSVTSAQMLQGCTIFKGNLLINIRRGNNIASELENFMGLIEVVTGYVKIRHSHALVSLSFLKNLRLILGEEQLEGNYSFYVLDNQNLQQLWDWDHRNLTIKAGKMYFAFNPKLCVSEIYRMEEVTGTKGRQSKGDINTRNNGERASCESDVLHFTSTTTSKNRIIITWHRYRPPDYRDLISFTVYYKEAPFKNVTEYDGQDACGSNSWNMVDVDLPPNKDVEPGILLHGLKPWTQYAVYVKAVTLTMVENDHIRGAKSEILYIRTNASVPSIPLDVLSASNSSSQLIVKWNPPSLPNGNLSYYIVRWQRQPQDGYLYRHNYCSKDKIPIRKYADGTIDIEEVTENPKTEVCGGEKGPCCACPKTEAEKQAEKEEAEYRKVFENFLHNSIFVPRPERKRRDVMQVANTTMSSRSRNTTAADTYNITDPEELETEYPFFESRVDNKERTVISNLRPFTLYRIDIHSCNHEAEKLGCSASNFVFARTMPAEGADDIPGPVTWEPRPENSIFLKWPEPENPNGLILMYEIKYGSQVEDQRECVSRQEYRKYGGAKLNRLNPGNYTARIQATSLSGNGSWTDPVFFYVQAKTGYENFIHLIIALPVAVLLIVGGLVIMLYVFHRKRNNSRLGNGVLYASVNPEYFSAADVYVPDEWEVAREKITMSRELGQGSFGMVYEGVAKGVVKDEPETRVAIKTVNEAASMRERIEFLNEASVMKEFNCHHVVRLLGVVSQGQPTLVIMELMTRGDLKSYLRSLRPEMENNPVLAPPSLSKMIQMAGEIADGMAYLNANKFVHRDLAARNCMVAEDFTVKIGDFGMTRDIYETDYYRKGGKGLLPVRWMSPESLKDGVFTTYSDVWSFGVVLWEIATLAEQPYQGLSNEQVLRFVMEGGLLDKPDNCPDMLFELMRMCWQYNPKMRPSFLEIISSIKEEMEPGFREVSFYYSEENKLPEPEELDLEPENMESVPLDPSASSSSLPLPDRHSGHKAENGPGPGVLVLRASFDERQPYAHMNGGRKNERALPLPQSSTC

For `COc1cc2c(cc1Nc1nc(Nc3cccc(F)c3C(N)=O)c3cc[nH]c3n1)N(C(C)=O)CC2` [Example 134, 2-[(2-{[1-acetyl-5-(methyloxy)-2,3-dihydro-1H-indol-6-yl]amino}-1H-pyrrolo[2,3-d]pyrimidin-4-yl)amino]-6-fluorobenzamide], the IC50 was 0.1 to 0.5 µM in experiment [1] and 0.00501 to 0.2 µM on human IGF1R (hIGF1R).
For `CCCNC(=O)c1c(F)cc(F)cc1Nc1nc(Nc2cc3c(cc2OC)CCN3C(=O)CN(C)C)nc2[nH]ccc12` [Example 152, 2-[(2-{[1-(N,N-dimethylglycyl)-5-(methyloxy)-2,3-dihydro-1H-indol-6-yl]amino}-1H-pyrrolo[2,3-d]pyrimidin-4-yl)amino]-4,6-difluoro-N-propylbenzamide], the IC50 was 0.1 to 0.5 µM in experiment [1] and 0.000251 to 0.001 µM on human IGF1R (hIGF1R).
Turning to `COc1ccc(C(N)=O)c(Nc2nc(Nc3ccc(N4CCOC[C@@H]4C)cc3OC)nc3[nH]ccc23)c1` [Example 39, 2-[(2-{[4-[(3S)-3-methyl-4-morpholinyl]-2-(methyloxy)phenyl]amino}-1H-pyrrolo[2,3-d]pyrimidin-4-yl)amino]-4-(methyloxy)benzamide], the IC50 was 0.1 to 0.5 µM in experiment [1] and 0.00501 to 0.2 µM at human IGF1R (hIGF1R).
Take `COc1cc2c(cc1Nc1nc(Nc3cccc(F)c3C(N)=O)c3cc[nH]c3n1)N(C(=O)CN1CCN(C(C)C)CC1)CC2` [Example 186, 2-fluoro-6-[(2-{[1-{[4-(1-methylethyl)-1-piperazinyl]acetyl}-5-(methyloxy)-2,3-dihydro-1H-indol-6-yl]amino}-1H-pyrrolo[2,3-d]pyrimidin-4-yl)amino]benzamide]: the IC50 in experiment [1] is 0.1 to 0.5 µM; on human IGF1R (hIGF1R) it was 0.00501 to 0.2 µM.
Regarding `CCCN1CCC=C(c2ccc(Nc3nc(Nc4ccc(F)cc4C(N)=O)c4cc[nH]c4n3)c(OC)c2)C1` [Example 54, 5-fluoro-2-[(2-{[2-(methyloxy)-4-(1-propyl-1,2,5,6-tetrahydro-3-pyridinyl)phenyl]amino}-1H-pyrrolo[2,3-d]pyrimidin-4-yl)amino]benzamide], the IC50 is 0.1 to 0.5 µM in experiment [1] and 0.000251 to 0.001 µM on human IGF1R (hIGF1R).
Consider `COc1cc2c(cc1Nc1nc(Nc3cccc(F)c3C(N)=O)c3cc[nH]c3n1)N(C(=O)CN1CCC1)CC2` [Example 143, 2-[(2-{[1-(1-azetidinylacetyl)-5-(methyloxy)-2,3-dihydro-1H-indol-6-yl]amino}-1H-pyrrolo[2,3-d]pyrimidin-4-yl)amino]-6-fluorobenzamide], for which the IC50 is 0.1 to 0.5 µM in experiment [1] and 0.000251 to 0.001 µM at human IGF1R (hIGF1R).
`COc1cc2c(cc1Nc1nc(Nc3cccc(F)c3C(N)=O)c3cc[nH]c3n1)N(CCN(C)C)CC2` [Example 117, 2-[(2-{[1-[2-(dimethylamino)ethyl]-5-(methyloxy)-2,3-dihydro-1H-indol-6-yl]amino}-1H-pyrrolo[2,3-d]pyrimidin-4-yl)amino]-6-fluorobenzamide]: the IC50 was over 0.5 µM in experiment [1] and 0.00501 to 0.2 µM at human IGF1R (hIGF1R).
In the case of `COc1cc2c(cc1Nc1nc(Nc3cccc4c3C(=O)NC4)c3cc[nH]c3n1)N(C(=O)CN(C)C)CC2` [Example 200, 7-[(2-{[1-(N,N-dimethylglycyl)-5-(methyloxy)-2,3-dihydro-1H-indol-6-yl]amino}-1H-pyrrolo[2,3-d]pyrimidin-4-yl)amino]-2,3-dihydro-1H-isoindol-1-one], the IC50 in experiment [1] is under 0.1 µM; on human IGF1R (hIGF1R) it was 0.000251 to 0.001 µM.
With `COc1cc2c(cc1Nc1nc(Nc3cccc(F)c3C(N)=O)c3cc[nH]c3n1)N(C(=O)Cn1ccnc1)CC2` [Example 145, 2-fluoro-6-[(2-{[1-(1H-imidazol-1-ylacetyl)-5-(methyloxy)-2,3-dihydro-1H-indol-6-yl]amino}-1H-pyrrolo[2,3-d]pyrimidin-4-yl)amino]benzamide], the IC50 in experiment [1] was over 0.5 µM; on human IGF1R (hIGF1R), 0.00501 to 0.2 µM.
As to `COc1cc2c(cc1Nc1nc(Nc3cccc(F)c3C(N)=O)c3cc[nH]c3n1)N(C(=O)CN(C)OC)CC2` [Example 144, 2-fluoro-6-[(2-{[1-[N-methyl-N-(methyloxy)glycyl]-5-(methyloxy)-2,3-dihydro-1H-indol-6-yl]amino}-1H-pyrrolo[2,3-d]pyrimidin-4-yl)amino]benzamide], the IC50 in experiment [1] was over 0.5 µM; at human IGF1R (hIGF1R), 0.00501 to 0.2 µM.
On the same counts, the results for `CNC(=O)c1c(F)cccc1Nc1nc(Nc2cc(N(C)C(=O)CN(C)C)ccc2OC)nc2[nH]ccc12` [Example 242, 2-[(2-{[5-[(N,N-dimethylglycyl)(methyl)amino]-2-(methyloxy)phenyl]amino}-1H-pyrrolo[2,3-d]pyrimidin-4-yl)amino]-6-fluoro-N-methylbenzamide] are 0.1 to 0.5 µM and 0.00501 to 0.2 µM.
In the case of `CNC(=O)c1cc2ccccc2cc1Nc1nc(Nc2cc3c(cc2OC)CCN3C(=O)CN(C)C)nc2[nH]ccc12` [Example 125, 3-[(2-{[1-(N,N-dimethylglycyl)-5-(methyloxy)-2,3-dihydro-1H-indol-6-yl]amino}-1H-pyrrolo[2,3-d]pyrimidin-4-yl)amino]-N-methyl-2-naphthalenecarboxamide], the IC50 in experiment [1] was 0.1 to 0.5 µM; on human IGF1R (hIGF1R) it was 0.000251 to 0.001 µM.
`COc1cc2c(cc1Nc1nc(Nc3cccc(F)c3C(N)=O)c3cc[nH]c3n1)N(C(=O)CN1CCOCC1)CC2` [Example 185, 2-fluoro-6-[(2-{[5-(methyloxy)-1-(4-morpholinylacetyl)-2,3-dihydro-1H-indol-6-yl]amino}-1H-pyrrolo[2,3-d]pyrimidin-4-yl)amino]benzamide]: the IC50 in experiment [1] was under 0.1 µM; at human IGF1R (hIGF1R) it was 0.00501 to 0.2 µM.
For the compound `COc1cc2c(cc1Nc1nc(Nc3cccc(F)c3C(N)=O)c3cc[nH]c3n1)N(C(=O)CCN1CCOCC1)CC2` [Example 187, 2-fluoro-6-{[2-({5-(methyloxy)-1-[3-(4-morpholinyl)propanoyl]-2,3-dihydro-1H-indol-6-yl}amino)-1H-pyrrolo[2,3-d]pyrimidin-4-yl]amino}benzamide], the IC50 is 0.1 to 0.5 µM in experiment [1] and 0.00501 to 0.2 µM on human IGF1R (hIGF1R).
For the compound `COc1cc2c(cc1Nc1nc(Nc3cc4ccccc4cc3C(N)=O)c3cc[nH]c3n1)N(C(=O)CN(C)C)CC2` [Example 124, 3-[(2-{[1-(N,N-dimethylglycyl)-5-(methyloxy)-2,3-dihydro-1H-indol-6-yl]amino}-1H-pyrrolo[2,3-d]pyrimidin-4-yl)amino]-2-naphthalenecarboxamide], the figures for the IC50 (in experiment [1]; on human IGF1R (hIGF1R)) were under 0.1 µM and 0.000251 to 0.001 µM, respectively.
With `COc1cc(N2CCCN(S(C)(=O)=O)CC2)ccc1Nc1nc(Nc2cccc(F)c2C(N)=O)c2cc[nH]c2n1` [Example 207, 2-fluoro-6-{[2-({2-(methyloxy)-4-[4-(methylsulfonyl)hexahydro-1H-1,4-diazepin-1-yl]phenyl}amino)-1H-pyrrolo[2,3-d]pyrimidin-4-yl]amino}benzamide], the IC50 is over 0.5 µM in experiment [1] and 0.00501 to 0.2 µM on human IGF1R (hIGF1R).
As to `COc1cc(N2CCN(C(C)C)CC2)ccc1Nc1nc(Nc2ccccc2C(N)=O)c2cc[nH]c2n1` [Example 7, 2-[(2-{[4-[4-(1-methylethyl)-1-piperazinyl]-2-(methyloxy)phenyl]amino}-1H-pyrrolo[2,3-d]pyrimidin-4-yl)amino]benzamide], the results for the IC50 (in experiment [1]; on human IGF1R (hIGF1R)) were under 0.1 µM and 0.000251 to 0.001 µM, respectively.
On to `COc1cc2c(cc1Nc1nc(Nc3cccc(F)c3C(N)=O)c3cc[nH]c3n1)NCCC2` [Example 211, 2-fluoro-6-[(2-{[6-(methyloxy)-1,2,3,4-tetrahydro-7-quinolinyl]amino}-1H-pyrrolo[2,3-d]pyrimidin-4-yl)amino]benzamide], for which the IC50 in experiment [1] was over 0.5 µM; on human IGF1R (hIGF1R), 0.00501 to 0.2 µM.
